Converted amounts (≈) assume the structure as drawn. Read-outs that look alike come from different tables or passages of the source.
Legend:
Format in all cases: cell-based
L1210 cells = test: Cytotoxicity, MTA (Microculture Tetrazolium Assay) test; conditions: cytotoxicity on L1210 cells
Protocol: The cytotoxicity of compounds 5, 9, and 10-21 was determined in L1210 cells using the MTA (Microculture Tetrazolium Assay) test.

[1] = system: Mycobacterium tuberculosis H37Rv; test: Mycobacterial growth inhibition in liquid culture, CFU plating (MIC99); conditions: for MIC99: 504 h
[2] = system: Mycobacterium smegmatis mc^2155; test: Mycobacterial growth inhibition in liquid culture (MIC99); conditions: two-day's growth at 37°C, 99% decrease vs DMSO control; for MIC99: Mycolicibacterium smegmatis, MC2155|MC^2155, 48 h
Candida albicans = test: In vitro activity (MIC99) against Candida albicans; conditions: > 99 % inhibition of growth; for MIC99: Candida albicans, read-out: MIC99 C. albicans
Protocol: The antifungal activity of compounds 5, 9, and 11-22 against Candida albicans was analyzed by the measure of the MIC99 concentration (see Table 1). Table 1. In Vitro Activity against Candida albicans of pyranodibenzofuran derivatives

M. bovis BCG (Pasteur) = test: microbe, parasite or virus in culture; conditions: Mycobacterium tuberculosis variant bovis BCG
[3] = system: M. tuberculosis Beijing (GC1237); test: Growth inhibition in liquid culture, CFU plating (MIC99); conditions: Mycobacterium tuberculosis
M. microti (MYC-942272) = test: as above
M. tuberculosis H37Ra = test: as above; conditions: Mycobacterium tuberculosis
Pseudomonas aeruginosa = test: Growth inhibition in liquid medium, CFU plating (MIC99); conditions: Gram-negative
Protocol: (§1) To further assess its specificity, effect of compounds 9 and 16 was also assessed in vitro growth in liquid medium on a whole range of bacteria (Corynebacterium jeikeium, Escherichia coli, Enterococcus faecalis, Klebsiella oxytoca, Nocardia asteroides, Staphylococcus aureus, Pseudomonas aeruginosa and Streptomyces). Compounds were solubilized in dimethylsulfoxide (DMSO) and 100 µl of the appropriate dilution were added to a 5 ml culture with predetermined bacterium inoculum. Quantification of the bacteria was carried out by plating on appropriate agar serial 5-fold dilutions in medium, and colony forming units (CFUs) were ascertained after 24 to 48 hours according to the strains. Table 5. Antibacterial activity of compounds 9 and 16 on other bacteria

Escherichia coli = test: as above; conditions: Gram-negative
Protocol: as §1

Corynebacterium jeikeium = test: as above; conditions: Actinomycetes
Protocol: as §1

Nocardia asteroides = test: as above; conditions: Actinomycetes
Protocol: as §1

Enterococcus faecalis = test: as above; conditions: Gram-positive
Protocol: as §1

Macrophages = test: Cytotoxicity, MTT test; conditions: cytotoxicity on macrophages
Protocol: (§2) The cytotoxicity of compounds 9 and 16 was further assessed in various mammalian cell lines using the MTT test. RAW and A549 cell lines were maintained in RPMI 1640 medium without L-GLU supplemented with 10% Fetal calf serum (FCS), penicillin-streptomycin solution 1 % at 37 °C in air with 5 % CO2. VERO cell lines were maintained in D-MEM medium without L-GLU supplemented with 10% Fetal calf Serum (FCS), penicillin-streptomycin solution 1 % at 37 °C in air with 5 % CO2. Proliferating cells were seeded for 96-well microtitration plates at a density of 5. 10^5 cells/mL which were further incubated for 24 h at 37°C under 5 % CO2 in air before each assay. Various concentrations of solutions of 9 and 16 (10 µl/well) in 1.25 % dimethylsulfoxide (DMSO)) were added and then incubated for 24 hours under the above conditions. At the end of incubation, 20 µl of dimethylthiazolyl diphenyl tetrazolium bromide solution (MTT) (7.5 mg/ml) was then added into each well and further incubated for 4 h at 37°C to allow the formation of formazan. The crystals of formazan were then dissolved with 100 µl of an acidic solution (Sodium dodecyl sulfate (SDS) 10 %, HCl 10 mM). The optical density of each well was measured at 595 nm using a Multiwell plate reader. The values given are the average means of six replicates. The 50 % inhibition concentration was determined by curve fitting.

VERO cells = test: Cytotoxicity, MTT test; conditions: for IC50: cytotoxicity on VERO cells, MTT, 24 hours
Protocol: as §2

[4] = Mycobacterium tuberculosis, H37RV, H37Rv, three weeks growth in 7H9, CFU on 7H11, NI = no inhibition at 1 mg/mL, read-out: MIC99 on M. tuberculosis
[5] = read-out: MIC99 on M. smegmatis, mc2155
[6] = mc2155, read-out: MIC99 on M. smegmatis
[7] = H37Rv, three weeks growth in 7H9, CFU on 7H11, NI = no inhibition at 1 mg/mL
[8] = Mycobacterium tuberculosis, H37RV, M. tuberculosis H37Rv, three week growth in 7H9/OADC, read-out: MIC99

CC1(C)Oc2ccc3oc4ccccc4c3c2[C@@H](O)[C@H]1O (racemic) [Compound 12, (±)cis-1,2-dihydro-1,2-dihydroxy-3,3-dimethyl-3H-benzofuro[3,2-f][1]benzopyran]
IC50 (L1210 cells; Mus musculus, read-out: IC50): 1.3 µg/mL (≈ 4.57 µM)
MIC99 [1, 4]: 60 µg/mL (≈ 211 µM)
MIC99 [2, 5]: 30 to 60 µg/mL (≈ 106 to 211 µM)
MIC99 [2, 6]: 30 µg/mL (≈ 106 µM)
MIC99 (Candida albicans): > 160 µg/mL

CC(=O)O[C@@H]1c2c(ccc3oc4ccccc4c23)OC(C)(C)[C@H]1OC(C)=O (racemic) [Compound 19, (±)trans-1,2,-diacetoxy-1,2-dihydro-3,3-dimethyl-3H-benzofuro[3,2-f][1]benzopyran]
IC50 (L1210 cells): 5.5005 µg/mL (≈ 14.9 µM)
MIC99 on M. tuberculosis [1, 7]: NI (No inhibition observed at the highest concentration tested (1 mg/mL))
MIC99 on M. smegmatis ([2]; mc2155): 180 µg/mL (≈ 489 µM)
MIC99 C. albicans (Candida albicans): > 300 µg/mL

C=C1Oc2ccc3oc4ccccc4c3c2C1(C)C [Compound 10, 1,2-dihydro-1,1-dimethyl-2-methylenebenzofuro[5,4-b]benzofuran]
IC50 (L1210 cells; Mus musculus, read-out: IC50): 3.71 µg/mL (≈ 14.8 µM)
MIC99 (Candida albicans): > 300 µg/mL

CC(=O)OC1C(=O)c2c(ccc3oc4ccccc4c23)OC1(C)C (racemic) [Compound 20, (±)2-acetoxy-2,3-dihydro-2-hydro-3,3-dimethyl-1H-benzofuro[3,2-f][1]benzopyran-1-one]
IC50 (L1210 cells): 28.5 µg/mL (≈ 87.9 µM)
MIC99 C. albicans (Candida albicans): > 280 µg/mL

CC(=O)O[C@@H]1c2c(ccc3oc4ccccc4c23)OC(C)(C)[C@@H]1OC(C)=O (racemic) [Compound 18, (±)cis-1,2-diacetoxy-1,2-dihydro-3,3-dimethyl-3H-benzofuro[3,2-f][1]benzopyran]
IC50 (L1210 cells; Mus musculus, read-out: IC50): 9.35 µg/mL (≈ 25.4 µM)
MIC99 (Candida albicans): > 300 µg/mL

NNC(=O)c1ccncc1 [INH, isoniazid, reference compound]
MIC99 (M. bovis BCG (Pasteur)): 1 µg/mL (≈ 7.29 µM)
MIC99 ([3]; read-out: MIC99): 0.1 µg/mL (≈ 0.729 µM)
IC50 (L1210 cells; Mus musculus, read-out: IC50): 14 µg/mL (≈ 102 µM)
MIC99 [1, 4]: 0.1 µg/mL (≈ 0.729 µM)
MIC99 [1, 8]: 0.1 µg/mL (≈ 0.729 µM)
MIC99 (M. microti (MYC-942272)): 0.1 µg/mL (≈ 0.729 µM)
MIC99 (M. tuberculosis H37Ra): 1 µg/mL (≈ 7.29 µM)
MIC99 [2, 6]: 13 µg/mL (≈ 94.8 µM)

CC1(C)CCc2c(ccc3oc4ccccc4c23)O1 [Compound 16, 1,2-dihydro-3,3-dimethyl-3H-benzofuro[3,2-f][1]benzopyran]
MIC99 (M. bovis BCG (Pasteur)): 10 µg/mL (≈ 39.6 µM)
MIC99 (Pseudomonas aeruginosa): > 500 µg/mL
MIC99 (Escherichia coli): > 500 µg/mL
MIC99 (Corynebacterium jeikeium): > 150 µg/mL
MIC99 (Nocardia asteroides): 15 µg/mL (≈ 59.4 µM)
MIC99 (Enterococcus faecalis): > 500 µg/mL
MIC99 [3]: < 5 µg/mL
IC50 (Macrophages; Macrophage, 24 h, read-out: IC50): > 50 µg/mL
IC50 (Macrophages; 24 hours): > 100 µg/mL
IC50 (VERO cells; Chlorocebus sabaeus, Vero, 24 h, read-out: IC50): > 50 µg/mL
IC50 (VERO cells): 100 µg/mL (≈ 396 µM)
Selectivity Index (VERO cells; summary statement, cell type not specified): above 10
MIC99 [1, 4]: 5 µg/mL (≈ 19.8 µM)
MIC99 ([1]; Mycobacterium tuberculosis, H37RV, M. tuberculosis H37Rv, three week growth in 7H9/OADC): < 5 µg/mL
MIC ([1]; Mycobacterium tuberculosis, H37RV, summary statement, read-out: MIC measured on M. tuberculosis): < 6.25 µg/mL
MIC99 (M. tuberculosis H37Ra): 10 µg/mL (≈ 39.6 µM)
MIC99 [2, 5]: 5 µg/mL (≈ 19.8 µM)
MIC99 [2, 6]: 1 µg/mL (≈ 3.96 µM)

CC1(C)Oc2ccc3oc4ccccc4c3c2[C@@H](O)[C@@H]1O (racemic) [Compound 15, (±)trans-1,2,-dihydro-1,2-dihydroxy-3,3-dimethyl-3H-benzofuro[3,2-f][1]benzopyran]
IC50 (L1210 cells): 12.3405 µg/mL (≈ 43.4 µM)
MIC99 on M. tuberculosis [1, 7]: NI (No inhibition observed at the highest concentration tested (1 mg/mL))
MIC99 on M. smegmatis ([2]; mc2155): 30 µg/mL (≈ 106 µM)
MIC99 C. albicans (Candida albicans): > 300 µg/mL

CC(=O)CC1(O)C(=O)c2c(ccc3oc4ccccc4c23)OC1(C)C (racemic) [Compound 14, (±)2,3-dihydro-2-hydroxy-3,3-dimethyl-2-(2-oxopropyl)-1Hbenzofuro[3,2f][1]benzopyran-1-one]
IC50 (L1210 cells): 18.981 µg/mL (≈ 56.1 µM)
MIC99 C. albicans (Candida albicans): 150 µg/mL (≈ 443 µM)

CC1(C)Oc2ccc3oc4ccccc4c3c2C(=O)C1O (racemic) [Compound 13, (±)2,3-dihydro-2-hydroxy-3,3-dimethyl-1H-benzofuro[3,2-f][1]benzopyran-1-one]
IC50 (L1210 cells; Mus musculus, read-out: IC50): 5.04 µg/mL (≈ 17.9 µM)
MIC99 (Candida albicans): > 330 µg/mL

C#CC(C)(C)Oc1ccc2oc3ccccc3c2c1 [Compound 5, 2-(1,1-dimethyl-propargyloxy)-dibenzofuran]
MIC99 (M. bovis BCG (Pasteur)): > 500 µg/mL
MIC99 ([3]; read-out: MIC99): > 500 µg/mL
MIC99 [1, 4]: > 1000 µg/mL
MIC99 [1, 8]: > 500 µg/mL
MIC99 (M. microti (MYC-942272)): > 500 µg/mL
MIC99 (M. tuberculosis H37Ra): > 500 µg/mL
MIC99 [2, 5]: 12 µg/mL (≈ 47.9 µM)

CC(=O)O[C@H]1c2cc3oc4ccccc4c3cc2OC(C)(C)[C@H]1OC(C)=O (racemic) [Compound 17, (±)cis-3,4-diacetoxy-3,4-dihydro-2,2-dimethyl-2H-benzofuro[2,3-g]-[1]-benzopyran]
IC50 (L1210 cells; Mus musculus, read-out: IC50): 8.52 µg/mL (≈ 23.1 µM)
MIC99 (Candida albicans): > 400 µg/mL

(±)cis-4H-3a,4,12b-trihydro-2,2-dimethyl-1,3-dioxolo[4,5-h]benzofuro[3,2-g]benzopyran [Compound 21]
IC50 (L1210 cells): 12.8535 µg/mL
MIC99 C. albicans (Candida albicans): > 400 µg/mL

Clc1ccc(COC(Cn2ccnc2)c2ccc(Cl)cc2Cl)c(Cl)c1 (stereo not drawn) [Miconazole, reference compound]
MIC99 (Candida albicans): 0.25 to 60 µg/mL (≈ 0.601 to 144 µM)

CC1(C)Oc2cc3c(cc2[C@H](O)[C@@H]1O)oc1ccccc13 (racemic) [Compound 11, (±)cis-3,4-dihydro-3,4-dihydroxy-2,2-dimethyl-2H-benzofuro[2,3-g]-[1]-benzopyran]
IC50 (L1210 cells; Mus musculus, read-out: IC50): 13 µg/mL (≈ 45.7 µM)
MIC99 [1, 4]: > 1000 µg/mL
MIC99 [2, 5]: 30 to 60 µg/mL (≈ 106 to 211 µM)
MIC99 [2, 6]: 60 µg/mL (≈ 211 µM)
MIC99 (Candida albicans): 27 µg/mL (≈ 95 µM)

From patent EP1770089A1, “Pyranodibenzofuran derivatives with antifungal and antibacterial activity” (priority 2005, dated 2007)
